Test results as given in PubChem BioAssay (NCI).
Where “and” joins values, the source holds several entries; their conditions need not be identical. Identical values can stand only once.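 Following 48 hours of exposure in 96-well plates, responses at five concentrations were used to interpolate endpoints linearly. The concentration for 50% growth inhibition is given as GI50. TGI is the concentration that stops growth completely.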

What was measured:
Test in all cases: NCI-60 cell line screen, 48 h
[1] = system: BT-549 breast
[2] = system: SK-MEL-5 melanoma
[3] = system: SN12C renal
[4] = system: A498 renal
[5] = system: OVCAR-3 ovarian
[6] = system: EKVX NSCLC
[7] = system: SK-OV-3 ovarian
[8] = system: SK-MEL-28 melanoma
[9] = system: HOP-92 NSCLC
[10] = system: PC-3 prostate

| SMILES | GI50 [1] [nM] | TGI [1] [nM] | GI50 [2] | TGI [2] | GI50 [3] | TGI [3] [nM] | GI50 [4] | TGI [4] | GI50 [5] [nM] | TGI [5] | GI50 [6] | TGI [6] [nM] | GI50 [7] | TGI [7] [nM] | GI50 [8] | TGI [8] | GI50 [9] | TGI [9] | GI50 [10] [nM] | TGI [10] [nM] |
| --- | --- | --- | --- | --- | --- | --- | --- | --- | --- | --- | --- | --- | --- | --- | --- | --- | --- | --- | --- | --- |
| C=C(CNC(=O)c1ccccc1)c1ccc(C(=O)Nc2ccccc2N)cc1 | 19600 | > 100000 | 2670 nM | 14900 nM | 1090 nM | 8930 | 1370 nM | 7580 nM | 11200 | > 100000 nM | > 100000 nM | > 100000 | > 100000 nM | > 100000 | 14000 nM | > 100000 nM | 1150 nM | > 100000 nM | 2950 | > 100000 |
| COc1cc(F)c(/C=C/c2cc(/C=C/c3cc(OC)c(OC)cc3F)n(-c3cc(F)cc(F)c3)n2)cc1OC | 2350 | 7510 | 2840 nM | 9380 nM | 2040 nM | 4420 | 14500 nM | 28800 nM | 2470 | 6370 nM | 4940 nM | 55900 | 19600 nM | 41900 | 2360 nM | 5750 nM | 6000 nM | 21500 nM | 2660 | 8170 |
| OCC(CCc1c[nH]c2ccccc12)c1c[nH]c2ccccc12 (centres undefined) | – | 30500 | – | 30400 nM | – | 32600 | – | 30200 nM | – | > 100000 nM | – | 30300 | – | 98500 | – | 36600 nM | – | 32700 nM | – | 32300 |
| CN(C)CCSCCO | – | > 100000 | – | > 100000 nM | – | > 100000 | – | > 100000 nM | – | > 100000 nM | – | > 100000 | – | > 100000 | – | > 100000 nM | – | > 100000 nM | – | > 100000 |
| c1ccc(B2OCC(C3OB(c4ccccc4)OC4COB(c5ccccc5)OC43)O2)cc1 (centres undefined) | – | > 100000 | – | > 100000 nM | – | > 100000 | – | > 100000 nM | – | > 100000 nM | – | > 100000 | – | > 100000 | – | > 100000 nM | – | > 100000 nM | – | > 100000 |
| O=C(N/N=C/c1ccc(Cl)cc1Cl)c1ccc2nc(-c3ccc(Cl)cc3)[nH]c2c1 | 4930 | 21300 | 1810 nM | 3390 nM | 1960 nM | 4260 | 1740 nM | 4940 nM | 1840 | 3390 nM | 1820 nM | 3680 | 1790 nM | 4310 | 1580 nM | 3040 nM | 1670 nM | 3530 nM | 1550 | 3300 |
| Clc1cc(-c2ccccc2)nc2ccccc12 | – | 80400 | – | 33000 nM | – | > 100000 | – | 94300 nM | – | > 100000 nM | – | > 100000 | – | > 100000 | – | > 100000 nM | – | > 100000 nM | – | 84200 |
| Cn1cnc2c(F)c(Nc3ccc(Br)cc3F)c(C(=O)NOCCO)cc21 | > 60200 | > 100000 | 787 nM and 414 nM | > 100000 nM | 13700 nM | > 100000 | 18.4 nM and 31.4 nM | 275 nM and 394 nM | > 100000 | > 100000 nM | 109 nM and 503 nM | > 100000 | > 92000 nM | > 100000 | 26.9 nM and 30.4 nM | 321 nM and 889 nM | 60.6 nM and 110 nM | 1900 nM and 2010 nM | > 100000 | > 100000 |
| Cc1ncc(C(=O)Nc2ccc(CN3CCN(C)CC3)c(C(F)(F)F)c2)cc1C#Cc1c(N)ncc2ccccc12 | 894 | 1960 | 446 nM | 878 nM | 319 nM | 783 | 485 nM | 939 nM | 484 | 1040 nM | 458 nM | 906 | 1610 nM | 5060 | 411 nM | 889 nM | 53.5 nM | 505 nM | 461 | 996 |
| Cc1ccc(Nc2cc(C)nc(NCCCNc3ccnc4cc(Cl)ccc34)n2)cc1 | 1630 | 3400 | 1400 nM | 2710 nM | 1490 nM | 3110 | 1060 nM | 2400 nM | 1700 | 3500 nM | – | – | 1570 nM | 3350 | 1620 nM | 3060 nM | 1160 nM | 2890 nM | 1570 | 3790 |
| COc1c(Cl)ccc2c(-c3nc4cc(Cl)c(F)cc4s3)cc(=O)oc12 | 7580 | 37500 | 26500 nM | > 88400 nM | 23200 nM | > 90300 | 17600 nM | 36000 nM | 3940 | 22000 nM | – | – | 7030 nM | 19900 | 26500 nM | > 78000 nM | 1770 nM | 4070 nM | 4460 | 15500 |
| COC(=O)[C@H](C)NC(=O)[C@@H](OC)[C@@H]1Cc2cc3cc(OC4CC(OC5CC(O)C(O)C(C)O5)C(O)C(C)O4)c(C)c(O)c3c(O)c2C(=O)[C@H]1OC1CC(OC2CC(OC3CC(C)(O)C(O)C(C)O3)C(O)C(C)O2)C(O)C(C)O1 (some centres undefined) | 88.1 | 1200 | 35.8 nM | 355 nM | 101 nM | > 50000 | – | – | 118 | 7410 nM | 174 nM | 35500 | 359 nM | > 50000 | 30.9 nM | 351 nM | 115 nM | 7100 nM | 184 | > 50000 |
| CC(C)C[C@H](NC(=O)[C@@H](NC(=O)c1cccc(-c2ccccc2)n1)[C@@H](C)O)B(O)O | 4.7 | – | 4.21 nM | 17.7 nM and < 11.4 nM | 15.1 nM and 19.3 nM | 413 | 2.47 nM | 6.1 nM and < 17.8 nM | 3.85 | 19.1 nM and < 11 nM | – | – | 47.4 nM and 32.5 nM | 7820 | 4.73 nM | 41.9 nM and 56.3 nM | 20.9 nM | 119 nM | 23.6 | 1940 |
| COc1cc(C2CC(=O)Nc3c2ccc2ccccc32)cc(Br)c1OC (centres undefined) | 384 | 17500 | 414 nM | 9930 nM | 1360 nM | > 43600 | 272 nM | 2290 nM | 309 | 809 nM | – | – | 507 nM | > 22700 | 805 nM | > 100000 nM | 176 nM | 2420 nM | 490 | > 100000 |
